Read-outs that look alike come from different tables or passages of the source.
Assays:
BGC-823, liver cancer = experiment: preliminary anti-tumor screening in vitro, SRB method; assay type: cell-based; conditions: Homo sapiens, read-out: inhibition rates (%) BGC-823
Description: (§1) The test methods used in this test example are routine methods for anti-tumor activities test in pharmaceutical area, for example, referring to the following reference: (J. Immunol Method, 1983, 65, 55).
(§2) Test models: A: MTT method (Hela, human cervical carcinoma); B: SRB method (BGC-823, […]); C: SRB method (MCF-7, breast cancer); D: SRB method (A549, human lung cancer); E: SRB method (PC3M1E8, prostate cancer).
(§3) Inhibition rates of the compounds were measured under concentrations of 0.1 μM, 1 μM or 10 μM.

MCF-7, breast cancer = experiment: as above; assay type: cell-based; conditions: Homo sapiens, read-out: inhibition rates (%) MCF-7; for inhibition at 0.1 µM: MCF7, 0.1 μM; for inhibition at 1 µM: MCF7, 1 μM; for inhibition at 10 µM: MCF7, 10 μM
Description: as §1, §2, §3

A549, human lung cancer = experiment: as above; assay type: cell-based; conditions: read-out: inhibition rates (%) A549
Description: as §1, §2, §3

[1] = biological target: T1, 20S proteasome extracted from rat liver (T-L) (Rattus norvegicus, UniProt P40112+Q9JHW0); experiment: inhibition of 20S proteasome, T-L activity (fluorescent peptide); assay type: biochemical; conditions: rat liver 20S proteasome; for inhibition at 0.2 µM / inhibition at 2 µM / inhibition at 20 µM: 37° C., 1 h, read-out: inhibition rates (%) T-L; for IC50: read-out: IC50 (μM) T-L
T1 construct: 20S proteasome extracted from rat liver; from tissue; host or cells: rat liver
Description: (§4) 1 μg of 20S proteasome extracted from rat liver was incubated with a 100 μL solution containing various concentrations of the present compounds, 50 μM fluorescent peptides and 20 mM Tris-HCl at 37° C. for 1 h, respectively. […] 0.1% DMSO was used as a solvent control. Compared with the fluorescence of solvent control, an inhibition rate or IC50 value was calculated.

[2] = tested on: Hela, human cervical carcinoma; experiment: preliminary anti-tumor screening in vitro, MTT method; assay type: cell-based; conditions: read-out: inhibition rates (%) Hela
Description: as §1, §2, §3

[3] = biological target: T2, 20S proteasome extracted from rat liver (PGPH) (Rattus norvegicus, UniProt P28073+Q9JHW0); experiment: inhibition of 20S proteasome, PGPH activity (fluorescent peptide); assay type: biochemical; conditions: rat liver 20S proteasome; for inhibition at 0.2 µM / inhibition at 2 µM / inhibition at 20 µM: 37° C., 1 h, read-out: inhibition rates (%) PGPH; for IC50: read-out: IC50 (μM) PGPH
T2 construct: 20S proteasome extracted from rat liver; from tissue; host or cells: rat liver
Description: as §4

[4] = biological target: T3, 20S proteasome extracted from rat liver (CT-L) (Rattus norvegicus, UniProt P18421+P28075); experiment: inhibition of 20S proteasome, CT-L activity (fluorescent peptide); assay type: biochemical; conditions: rat liver 20S proteasome; for inhibition at 0.2 µM / inhibition at 2 µM / inhibition at 20 µM: 37° C., 1 h, read-out: inhibition rates (%) CT-L; for IC50: read-out: IC50 (μM) CT-L
T3 construct: 20S proteasome extracted from rat liver; from tissue; host or cells: rat liver
Description: as §4

[5] = tested on: MGC803 stomach cancer cells; experiment: anti-tumor activity in vitro (IC50), MTT; assay type: cell-based; conditions: Homo sapiens, MGC-803, 72 h
Description: (§5) Cancer cells were cultured in vitro. When cell growth reached logarithmic phase, the cells were collected and centrifuged at 1000 rpm for 5 min, before the supernate was removed and the cells were suspended in a moderate amount of medium, and then the concentration of cell was adjusted to 3.5×10^4/mL. The cell suspension was added into a 96-well plate with 100 μL per well and cultured in a cell incubator (37° C., 5% CO2) for 24 h. Then test drugs of different end concentrations were added, and the negative control group was added DMSO (end concentration was 0.5%), while each group afforded three repetitive holes. After cultivation for another 72 h in the cell incubator, a solution containing 5 mg/ml MTT (20 μL) was added into each well and the 96-well plate was placed at 37° C. for 3 h. To each well was added 150 μL DMSO, after oscillation in a shaking table for 5 min, the optical density (OD) values at 492 nm/620 nm were measured. IC50 values were calculated by Prism Graphpad statistical software.

HepG2 liver cancer cells = experiment: anti-tumor activity in vitro (IC50), MTT; assay type: cell-based; conditions: Homo sapiens, liver cancer cells, 72 h, read-out: IC50 (μM) HepG2
Description: as §5

[6] = stomach cancer cells, MTT, read-out: IC50 (μM) MGC803
[7] = MGC80-3, MTT, value ± spread, read-out: IC50 (μM), growth of stomach cancer cells (MGC80-3)

Row | inhibition at 0.2 µM [1] | inhibition at 2 µM [1] | inhibition at 20 µM [1] | inhibition at 0.2 µM [3] | inhibition at 2 µM [3] | inhibition at 20 µM [3] | inhibition at 0.2 µM [4] | inhibition at 2 µM [4] | Structure (SMILES) | inhibition at 0.1 µM (BGC-823, liver cancer) | inhibition at 1 µM (BGC-823, liver cancer) | inhibition at 10 µM (BGC-823, liver cancer) | inhibition at 0.1 µM (MCF-7, breast cancer) | inhibition at 1 µM (MCF-7, breast cancer) | inhibition at 10 µM (MCF-7, breast cancer) | inhibition at 0.1 µM (A549, human lung cancer) | inhibition at 1 µM (A549, human lung cancer) | inhibition at 10 µM (A549, human lung cancer) | inhibition at 0.1 µM [2] | inhibition at 1 µM [2] | inhibition at 10 µM [2] | further results
1 | -5.23% | -1.52% | 0.968% | 2.67% | 3.15% | 9.71% | -17.8% | -15.1% | CC(C)C[C@H](NC(=O)N[C@@H](Cc1ccccc1)C(=O)Nc1cccc(OCc2ccccc2)c1)B1OC2C[C@H]3C[C@H](C3(C)C)[C@@]2(C)O1 (stereo partly drawn) [Example 5, N-L-leucine borate pinanediol ester-N′-(3-benzyloxy-phenylcarbamoyl)-L-phenylalanine-urea] | 5.47% | 3.19% | 8.66% | 6.37% | 8.84% | 8.44% | 3.25% | 10.3% | 30.3% | 7.42% | 10.3% | 21.8% | melting point: 78 to 80 °C; inhibition at 20 µM [4]: -3.13%
2 | -16.5% | -12.6% | 25.3% | 5.76% | 1.95% | 0.485% | 23.4% | 47.2% | CC(C)C[C@H](NC(=O)N[C@@H](Cc1ccccc1)C(=O)Nc1cnccn1)B1OC2C[C@H]3C[C@H](C3(C)C)[C@@]2(C)O1 (stereo partly drawn) [Example 7, N-L-leucine borate pinanediol ester-N′-(pyrazin-2-ylcarbamoyl)-L-phenylalanine-urea] | 2.21% | 0.62% | 6.88% | 4.81% | 7.4% | 11.7% | -1.53% | 2.54% | 15.5% | 0.48% | 5.11% | 14.9% | melting point: 93 to 95 °C; inhibition at 20 µM [4]: 82.6%
3 | 5.04% | 57.8% | 88.4% | 6.46% | 84.6% | 97% | 82.1% | 96.1% | CC(C)C[C@H](NC(=O)[C@H](Cc1ccccc1)NC(=O)NCc1ccccc1)B(O)O [Example 14, N-L-phenylalanyl-L-leucine borate-N′-benzylamine-urea] | 12.9% | 33.5% | 38.2% | 51.9% | 67.8% | 72.2% | 2.67% | 13% | 33.3% | 40.3% | 43.2% | 53.5% | IC50 [5, 6]: 0.0188 µM; IC50 (HepG2 liver cancer cells): 0.0873 µM; inhibition at 20 µM [4]: 98.9%
4 | 5.72% | 53.5% | 90.4% | 8.45% | 89.4% | 96.8% | 86.3% | 95.9% | COc1ccc(CNC(=O)N[C@@H](Cc2ccccc2)C(=O)N[C@@H](CC(C)C)B(O)O)cc1 [Example 15, N-L-phenylalanyl-L-leucine borate-N′-(p-methoxy-benzylamine)-urea] | 7.38% | 32.6% | 38.4% | 47.7% | 65% | 73.8% | 2.63% | 11% | 31.1% | 39.3% | 44.5% | 51.8% | IC50 [5, 6]: 0.036 µM; IC50 (HepG2 liver cancer cells): 0.25 µM; inhibition at 20 µM [4]: 98.3%
5 | 4.99% | 56.9% | 91% | 9.81% | 68.8% | 97.1% | 82.1% | 96.7% | COc1ccc(OC)c(CNC(=O)N[C@@H](Cc2ccccc2)C(=O)N[C@@H](CC(C)C)B(O)O)c1 [Example 18, N-L-phenylalanyl-L-leucine borate-N′-(2,5-dimethoxy-benzylamine)-urea] | 41.4% | 46.6% | 50% | 25.8% | 37.5% | 47.8% | 44.3% | 63.5% | 66% | 37.8% | 39.6% | 46.5% | IC50 [5, 6]: 0.0106 µM; IC50 (HepG2 liver cancer cells): 0.0528 µM; inhibition at 20 µM [4]: 98.3%
6 | – | – | – | – | – | – | – | – | CC(C)C[C@H](NC(=O)[C@H](Cc1ccccc1)NC(=O)NCc1ccc(-c2ccccc2)cc1)B(O)O [Example 32, N-L-phenylalanyl-L-leucine borate-N′-p-phenyl-benzylamine-urea] | – | – | – | – | – | – | – | – | – | – | – | – | IC50 [1]: 1.15 µM; IC50 [3]: 0.24 µM; IC50 [5, 6]: 0.00587 µM; IC50 (HepG2 liver cancer cells): 0.0372 µM; IC50 [4]: 0.0003 µM
7 | – | – | – | – | – | – | – | – | CC(C)C[C@H](NC(=O)[C@H](Cc1ccccc1)NC(=O)NCc1cccc2ccccc12)B(O)O [Example 34, N-L-phenylalanyl-L-leucine borate-N′-naphth-1-ylmethylamine-urea] | – | – | – | – | – | – | – | – | – | – | – | – | IC50 [1]: 0.15 µM; IC50 [3]: 0.12 µM; IC50 [5, 6]: 0.00706 µM; IC50 (HepG2 liver cancer cells): 0.0531 µM; IC50 [4]: 0.012 µM
8 | – | – | – | – | – | – | – | – | COc1cccc2c1CCN(C(=O)N[C@@H](Cc1ccccc1)C(=O)N[C@@H](CC(C)C)B(O)O)C2 [Example 54, N-L-phenylalanyl-L-leucine borate-N′-5-methoxy-1,2,3,4-tetrahydroisoquinoline-urea] | – | – | – | – | – | – | – | – | – | – | – | – | IC50 [5, 7]: 0.361 ± 0.088 µM
9 | – | – | – | – | – | – | – | – | CC(C)C[C@H](NC(=O)[C@H](Cc1ccccc1)NC(=O)N1CCc2ccsc2C1)B(O)O [Example 55, N-L-phenylalanyl-L-leucine borate-N′-4,5,6,7-tetrahydrothieno[2,3-c]pyridine-urea] | – | – | – | – | – | – | – | – | – | – | – | – | IC50 [5, 7]: 0.006 µM
